Assays:
Assay type in all cases: cell-based
[1] = tested on: LNCaP cells; assay: MTT cell viability assay, 96 hr exposure; settings: for GI50: Homo sapiens
Experimental: (§1) All cell lines were obtained from American. Type Culture Collection (Rockville, Md.) and maintained in RPM 1640 media supplemented with 10% fetal bovine serum and 5% penicillin streptomycin solution. Cells were grown as a monolayer in a humidified incubator (5% CO2) at 37° C. To determine the effect of the various compounds on cell proliferation, cells were plated (2500 cells/well) in 96-well cell culture dishes (Corning, Inc. Corning, N.Y.). After a 24 hr attachment period, media was replaced with fresh media containing compounds (0.01 μM-100 μM) or vehicle (95% ethanol). The cells were then allowed to grow in the presence of the drugs for 96 hrs. After 96 hrs, relative cell viability was assessed using the MIT reagent (3-(4,5-dimethylthiazol-2-yl)-2,5-diphenyltetrazolium bromide) as is well-known in the art. […] Results were plotted using the average of each dose over all three experiments and fitted with a best-fit sigmoidal dose response variable slope curve using GraphPad Prism 4.01 (GraphPad Software, Inc.). For combination of VN/124-1 and Thapsigargin, cells were treated for 72 hrs and viability was assessed as described for single agents. Combination index (CI) was calculated as is well known in the art, and CI values less than 1 are considered synergistic.

[2] = tested on: PC-3 cells; assay: MTT cell viability assay, 96 hr exposure; settings: PC-3, 96 hrs; for GI50: Homo sapiens
Experimental: as §1

[3] = tested on: DU-145 cells; assay: MTT cell viability assay, 96 hr exposure; settings: DU-145, 96 hrs; for GI50: Homo sapiens
Experimental: as §1

[4] = tested on: PC-3 cells; assay: Real-time PCR (qRT-PCR) of stress response and cell cycle related genes; settings: 20 μM, 24 hr
Experimental: Cells were treated, lysed and RNA collected and quantified using the same method outlined above. Cells were dosed independently on 3 separate days (n=3). 1 μg of total RNA was converted to cDNA using ReactionReady™ First Strand cDNA Synthesis kit (SuperArray Bioscience Corp.; Frederick, Md.) following manufacturer's protocol. 50 ng of template cDNA was then used in subsequent real-time PCR (qRT-PCR) reactions. Template was combined with target gene specific or β-actin control RT^2 PCR Primer Sets, RT^2 Real-Time™ SYBR Green/Rox Master Mix (SuperArray Bioscience Corp.), and ddH2O for a final reaction volume of 25 μL and run on a 7900HT Fast Real-Time PCR system (Applied Biosystems; Foster City, Calif.) following manufacturer's protocol. Fold changes were calculated using the ΔΔCt method as recommended by the manufacture's protocol.

[5] = tested on: PC-3 cells; assay: Absolute [Ca2+]i in individual cells, Fura-2AM; settings: 20 μM, 24 hrs, control cells about 42.05 nM
Experimental: (§2) PC-3 Cells were loaded with either fura-2 or fluo-3 indicator by incubation with 2 μM fura-2/AM or 2 μM fluo-3/AM in RPMI 1640 medium containing 10% fetal bovine serum for >60 min at room temperature. During experiments, the coverslips were mounted in a flow chamber and superfused with oxygenated Locke solution containing (in mM): 10 glucose, 136 NaCl, 5.6 KCl, 1.2 NaH2PO4 14.3 NaHCO3, 1.2 MgCl2, and 2.2 CaCl2, pH 7.4, at room temperature (22-24° C.).
For measurement of [Ca^2+]i in individual cells, PC-3 cells were incubated on coverslips with 20 μM VN/124-1 or vehicle for 24 hrs. Cells loaded with fura-2 were placed in a perfusion chamber mounted on an inverted microscope (TE200; Nikon, Tokyo, Japan) equipped with a UV-transmitting objective (SuperFluor, 40×, N.A. 1.4, Nikon). […] Fluorescence emission was passed through a 515 nm longpass filter before capture by a cooled CCD camera (Retiga 2000R, Q-Imaging). […]
(§3) Fluo-3 Ca^2+ indicator measurements are reported as the fractional change in fluorescence intensity relative to baseline (ΔF/F0), which was determined as follows. Within a temporal sequence of fluorescence images, a region of interest (ROI) was drawn around each cell to be analyzed. The fluorescence signal from each cell was calculated as the pixel-averaged intensity within each ROI. […]

[6] = tested on: eIF2α, p-eIF2α, cyclin D1, gp78/BiP, CHOP; assay: Western blot of ERSR related proteins; settings: 20 μM
Experimental: Cells were treated with VN/124-1, thapsigargin or vehicle for 6 and 24 hrs. Protein was isolated, subjected to SDS-PAGE, transferred and imaged as is known in the art. Primary antibodies against eIF2α, p-eIF2α, cyclin D1, gp78/BiP, and β-actin were purchased from Cell Signaling (Danvers, Mass.), Anti-CHOP antibody was purchased from Sigma Aldrich (St Louis, Mo.). Quantitation of relative protein expression was determined via densitometry using the software ImageQuant 5.0 (Molecular Dynamics) with each protein normalized to its respective loading control. Results represent the average of at least 3 independent experiments, with representative blots shown.

[7] = tested on: PC-3 cells; assay: Co-administration of VN/124-1 and thapsigargin, MTT cell viability, combination index; settings: 96 hrs, CI less than 1 synergistic
Experimental: All cell lines were obtained from American. Type Culture Collection (Rockville, Md.) and maintained in RPM 1640 media supplemented with 10% fetal bovine serum and 5% penicillin streptomycin solution. Cells were grown as a monolayer in a humidified incubator (5% CO2) at 37° C. To determine the effect of the various compounds on cell proliferation, cells were plated (2500 cells/well) in 96-well cell culture dishes (Corning, Inc. Corning, N.Y.). After a 24 hr attachment period, media was replaced with fresh media containing compounds (0.01 μM-100 μM) or vehicle (95% ethanol). The cells were then allowed to grow in the presence of the drugs for 96 hrs. After 96 hrs, relative cell viability was assessed using the MIT reagent (3-(4,5-dimethylthiazol-2-yl)-2,5-diphenyltetrazolium bromide) as is well-known in the art. Experiments were carried out 3 times with 6 replicates per dose per experiment (n=18). Results were plotted using the average of each dose over all three experiments and fitted with a best-fit sigmoidal dose response variable slope curve using GraphPad Prism 4.01 (GraphPad Software, Inc.). […] Combination index (CI) was calculated as is well known in the art, and CI values less than 1 are considered synergistic.

[8] = tested on: PC-3 cells; assay: Microarray global gene expression (GeneChip Human Genome Focus Array, DAVID ontologies); settings: 20 μM, 24 hrs
Experimental: To perform the microarray experiments, PC-3 cells were treated with (95% ethanol) or 20 μM of VN/124-1. After 24 hr exposure to the agent, cells were pelleted and lysed using Qiagen RLT (Qiagen Inc.; Valencia, Calif.) buffer containing 1% β-mercaptoethanol. Total RNA was isolated using the Qiagen RNeasy-Mini Kit following manufacturer's protocol. Quantity and purity were assessed by absorption at 260 nm and 280 nm. RNA integrity was assessed using an Agilent Bioanalyzer (Agilent Technologies; Santa Clara, Calif.). Experiments were carried out in duplicate, with triplicate samples (dosed independently on 3 different days) from each experiment pooled for analysis on a single chip.
Samples were hybridized to a GeneChip® Human Genome Focus Array (Affymetrix Inc., U.S.A.) and analyzed using an Affymetrix Genechip Scanner 3000 according to manufacturer's protocol. Gene ontologies were identified using the online Database for Annotation, Visualization, and integrated Discovery (DAVID) provided by the National Institute of Allergy and Infectious Diseases and the National Institute of Health. […] Stringent criteria of a minimum EASE/P-Value threshold of 0.001 and a gene count threshold of 5 were used to identify altered gene ontologies.

[9] = tested on: PC-3 cells; assay: Cell cycle analysis by flow cytometry in synchronized cells; settings: 20 μM
Experimental: Cells were synchronized in the G1/G0 phase by maintaining them in 0.2% FBS-containing media for 96 hrs. After starvation, media was replaced with normal growth media (10% FBS) containing vehicle (95% ethanol) or 20 μM VN/124-1 for 12, 18, and 24 hrs. At each timepoint, cells were pelleted and fixed in 70% ethanol at −20° C. for at least 24 hrs. Fixed cells were then incubated with 1 mL propidium iodide (PI) staining buffer (1 mg/ml PI, 0.1% Triton-X, and 10 μg/ml RNase A dissolved in PBS) for 1 hr at room temperature and DNA content was measured by flow cytometry analysis using a FACSort flow cytometer (Becton Dickinson, San Jose, Calif.). 15,000 events were analyzed for each sample and ModFit LT version 3.1 (Verity Software House Ind., ME) was used to analyze cell cycle distribution.

[10] = tested on: PC-3 cells; assay: Ca2+ transients in individual cells, Fluo-3AM; settings: 20 μM; for transient rise in [Ca2+]i, mean peak ΔF/F0: Fluo-3AM
Experimental: as §2
For measurement of [Ca^2+]i in individual cells, PC-3 cells were incubated on coverslips with 20 μM VN/124-1 or vehicle for 24 hrs. Cells loaded with fura-2 were placed in a perfusion chamber mounted on an inverted microscope (TE200; Nikon, Tokyo, Japan) equipped with a UV-transmitting objective (SuperFluor, 40×, N.A. 1.4, Nikon). Pura-2 was alternately excited by 340 nm and 380 nm light from monochrometers (Deltascan Illumination System, Photonic Technology International (PTI), South Brunswick, N.J.) and fura-2 emission was passed through a 515 nm longpass tiller before detection by a cooled CCD camera (Retiga 2000R, Q-Imaging, Burnaby, Canada). For measurement of Cat^2+ transients in individual cells, coverslips with fluo-3 loaded cells were excited by the output of a 100 W mercury are lamp that passed through a 480 nm bandpass filter (30 nm bandwidth). Fluorescence emission was passed through a 515 nm longpass filter before capture by a cooled CCD camera (Retiga 2000R, Q-Imaging). Image acquisition was performed with QCapture Pro (Q-Imaging) and analysis was performed with ImageJ (U.S. National Institutes of Health Bethesda, Md. USA).
as §3

| SMILES | GI50 [1] [µM] | GI50 [2] [µM] | GI50 [3] [µM] | GI90 [1] [µM] | GI90 [2] [µM] | GI90 [3] [µM] | other results |
| --- | --- | --- | --- | --- | --- | --- | --- |
| C[C@]12CC[C@H](O)CC1=CC[C@@H]1[C@@H]2CC[C@]2(C)C(c3cccnc3)=CC[C@@H]12 [Abiraterone, 17-(3-pyridyl)androsta-5,16-dien-3β-ol, reference compound] | 1.41 | 9.32 | 14.7 |  |  |  |  |
| C[C@]12CC[C@H](O)CC1=CCC1C2CC[C@]2(C)C(n3cncn3)=CCC12 (stereo partly shown) [VN/63-1] | 1.05 | 2.91 | 11 | >100 | >100 | >100 |  |
| C[C@]12CC[C@H](O)CC1=CCC1C2CC[C@]2(C)C(n3ccnc3)=CCC12 (stereo partly shown) [VN/85-1] | 2.47 | 1.86 | 5.31 | 36.49 | 30.41 | 31.62 |  |
| C[C@]12CC[C@H](O)CC1=CC[C@@H]1[C@@H]2CC[C@]2(C)C(n3cnc4ccccc43)=CC[C@@H]12 [VN/124-1] | 3.15 | 7.82 | 7.55 | 31.99 | 18.62 | 15.95 | activating transcription factor 4 (ATF4) gene expression ([4]; microarray verified by qRT-PCR): up-regulated; asparagines synthetase (ASKS) gene expression ([4]; microarray verified by qRT-PCR): up-regulated; CHOP gene expression ([4]; qRT-PCR): strongly up-regulated; cyclin D1 mRNA levels ([4]; qRT-PCR): not affected; cyclin E2 mRNA levels ([4]; qRT-PCR): significantly reduced; absolute [Ca2+]i, mean [5]: about 66.21 nM; CHOP protein level [6]: up-regulation; expression of gp78/BiP protein [6]: significantly induced; phosphorylation of eIF2α ([6]; 6 and 24 hrs): induced the phosphorylation; cyclin D1 protein ([6]; 24 hrs): down-regulation; Combination index (CI) ([7]; 5 μM VN/124-1 plus 10 nM thapsigargin): 0.40; Combination index (CI) ([7]; 10 μM VN/124-1 plus 10 nM thapsigargin): 0.58; Combination index (CI) ([7]; 20 μM VN/124-1 plus 10 nM thapsigargin): 0.77; S100P calcium binding protein gene expression [8]: most highly up-regulated; amount of cells in G1/G0 ([9]; 18 and 24 hrs, synchronized cells): significant increase; exit from G1 phase of the cell cycle ([9]; cells synchronized by serum starvation): prevented the exit from G1 phase; transient rise in [Ca2+]i, mean peak ΔF/F0 ([10]; extracellular calcium removed): 0.967; transient rise in [Ca2+]i, mean peak ΔF/F0 ([10]; presence of extracellular calcium): 0.613; transient rise in [Ca2+]i after depletion of ER calcium stores ([10]; pretreatment with SERCA inhibitor cyclopiazonic acid (CPA)): completely abolished |
| C[C@]12CCC(=O)C=C1CCC1C2CC[C@]2(C)C(n3cnc4ccccc43)=CCC12 (stereo partly shown) [VN/125-1] |  |  |  | 13.46 | 8.07 | 15.53 |  |
